Converted amounts (≈) assume the structure as drawn. Read-outs that look alike come from different tables or passages of the source.
Test system: pathogenic bacteria
Assay: MIC by microdilution broth method (NCCLS M7-A4), in vitro antibacterial activity
Assay type: cell-based
In short: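 MIC read after 35 °C incubation for 16–20 h relative to drug-free growth wells. Cation-adjusted Mueller-Hinton broth with two-fold compound dilutions, organisms at roughly 5×10^4 CFU/well final. Method follows NCCLS document M7-A4.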

[1] = Staphylococcus aureus, Organism A: Staphylococcus aureus OC4172, read-out: MIC
[2] = Streptococcus pneumoniae, ATCC49619, Organism E: Streptococcus pneumoniae ATCC 49619, read-out: MIC
[3] = Streptococcus pneumoniae, Organism B: fluoroquinolone-resistant clinical isolate of Streptococcus pneumoniae (QRDR amino acid substitutions)
[4] = Streptococcus pneumoniae, Organism C: fluoroquinolone-resistant clinical isolate of Streptococcus pneumoniae (QRDR amino acid substitutions)
[5] = Streptococcus pneumoniae, Organism D: fluoroquinolone-resistant clinical isolate of Streptococcus pneumoniae (QRDR amino acid substitutions)

Row | Structure (SMILES) | MIC [1] [µg/mL] | MIC [2] [µg/mL] | MIC [3] [µg/mL] | MIC [4] [µg/mL] | MIC [5] [µg/mL]
1 | C/C(CN)=C1/CCCN(c2cc3c(cc2F)c(=O)c(C(=O)O)cn3C2CC2)C1 [Compound 385, (E)-7-[3-(2-Amino-1-methyl-ethylidene)-piperidin-1-yl]-1-cyclopropyl-6-fluoro-4-oxo-1,4-dihydro-quinoline-3-carboxylic acid] | 1 (≈ 2.59 µM) | 8 (≈ 20.8 µM) | > 16 | > 16 | > 16
2 | NC/C(Cl)=C1\CCCN(c2cc3c(cc2F)c(=O)c(C(=O)O)cn3C2CC2)CC1 [Compound 386, (Z)-7-[4-(2-Amino-1-chloro-ethylidene)-azepan-1-yl]-1-cyclopropyl-6-fluoro-4-oxo-1,4-dihydro-quinoline-3-carboxylic acid] | 0.25 (≈ 0.595 µM) | 2 (≈ 4.76 µM) |  | 8 (≈ 19.1 µM) | 16 (≈ 38.1 µM)
3 | NC/C(Cl)=C1/CCCN(c2cc3c(cc2F)c(=O)c(C(=O)O)cn3C2CC2)CC1 [Compound 387, (E)-7-[4-(2-Amino-1-chloro-ethylidene)-azepan-1-yl]-1-cyclopropyl-6-fluoro-4-oxo-1,4-dihydro-quinoline-3-carboxylic acid] | 0.5 (≈ 1.19 µM) | 2 (≈ 4.76 µM) | > 16 | 16 (≈ 38.1 µM) | 16 (≈ 38.1 µM)
4 | COc1c(N2CCC/C(=C(/F)CN)C2)c(F)cc2c(=O)c(C(=O)O)cn(C3CC3)c12 [Compound 388, (Z)-7-[3-(2-Amino-1-fluoro-ethylidene)-piperidin-1-yl]-1-cyclopropyl-6-fluoro-8-methoxy-4-oxo-1,4-dihydro-quinoline-3-carboxylic acid] | ≤ 0.25 | 0.5 (≈ 1.19 µM) | 2 (≈ 4.77 µM) | 8 (≈ 19.1 µM) | 2 (≈ 4.77 µM)
5 | COc1c(N2CCC/C(=C/CN)C2)c(F)cc2c(=O)c(C(=O)O)cn(C3CC3)c12 [Compound 389, (Z)-7-[3-(2-Amino-ethylidene)-piperidin-1-yl]-1-cyclopropyl--6-fluoro-8-methoxy-4-oxo-1,4-dihydro-quinoline-3-carboxylic acid] | ≤ 0.015 | 0.06 (≈ 0.149 µM) | 0.5 (≈ 1.25 µM) | 1 (≈ 2.49 µM) | 0.5 (≈ 1.25 µM)
6 | COc1c(N2CCC/C(=C\CN)C2)c(F)cc2c(=O)c(C(=O)O)cn(C3CC3)c12 [Compound 390, (E)-7-[3-(2-Amino-ethylidene)-piperidin-1-yl]-1-cyclopropyl-6-fluoro-8-methoxy-4-oxo-1,4-dihydro-quinoline-3-carboxylic acid] | 0.06 (≈ 0.149 µM) | 0.5 (≈ 1.25 µM) |  | 2 (≈ 4.98 µM) | 4 (≈ 9.96 µM)
7 | COc1c(N2CC(=C(C)CN)C2)c(F)cc2c(=O)c(C(=O)O)cn(C3CC3)c12 [Compound 391, 7-[3-(2-Amino-1-methyl-ethylidene)-azetidin-1-yl]-1-cyclopropyl-6-fluoro-8-methoxy-4-oxo-1,4-dihydro-quinoline-3-carboxylic acid] | 0.06 (≈ 0.155 µM) | 2 (≈ 5.16 µM) | 8 (≈ 20.6 µM) | > 16 | 8 (≈ 20.6 µM)
8 | COc1c(N2CCC/C(=C(/C)CN)C2)c(F)cc2c(=O)c(C(=O)O)cn(C3CC3)c12 [Compound 392, (E)-7-[3-(2-Amino-1-methyl-ethylidene)-piperidin-1-yl]-1-cyclopropyl-6-fluoro-8-methoxy-4-oxo-1,4-dihydro-quinoline-3-carboxylic acid] | 0.25 (≈ 0.602 µM) | 1 (≈ 2.41 µM) | 16 (≈ 38.5 µM) | > 16 | 8 (≈ 19.3 µM)
9 | COc1c(N2CCC/C(=C(/Cl)CN)CC2)c(F)cc2c(=O)c(C(=O)O)cn(C3CC3)c12 [Compound 393, (Z)-7-[4-(2-Amino-1-chloro-ethylidene)-azepan-1-yl]-1-cyclopropyl-6-fluoro-8-methoxy-4-oxo-1,4-dihydro-quinoline-3-carboxylic acid] | 0.25 (≈ 0.556 µM) | 0.5 (≈ 1.11 µM) |  | 8 (≈ 17.8 µM) | 2 (≈ 4.45 µM)
10 | COc1c(N2CCC/C(=C(\Cl)CN)CC2)c(F)cc2c(=O)c(C(=O)O)cn(C3CC3)c12 [Compound 394, (E)-7-[4-(2-Amino-1-chloro-ethylidene)-azepan-1-yl]-1-cyclopropyl-6-fluoro-8-methoxy-4-oxo-1,4-dihydro-quinoline-3-carboxylic acid] | 0.03 (≈ 0.0667 µM) | 0.5 (≈ 1.11 µM) | 1 (≈ 2.22 µM) | 4 (≈ 8.89 µM) | 1 (≈ 2.22 µM)
11 | NC/C(F)=C1\CCCN(c2c(F)cc3c(=O)c(C(=O)O)cn(C4CC4)c3c2OC(F)F)C1 [Compound 395, (Z)-7-[3-(2-Amino-1-fluoro-ethylidene)-piperidin-1-yl]-1-cyclopropyl-8-difluoromethoxy-6-fluoro-4-oxo-1,4-dihydro-quinoline-3-carboxylic acid] | 0.06 (≈ 0.132 µM) | 0.5 (≈ 1.1 µM) | 4 (≈ 8.78 µM) | 8 (≈ 17.6 µM) | 0.5 (≈ 1.1 µM)
12 | NC/C=C1/CCCN(c2c(F)cc3c(=O)c(C(=O)O)cn(C4CC4)c3c2OC(F)F)C1 [Compound 396, (Z)-7-[3-(2-Amino-ethylidene)-piperidin-1-yl]-1-cyclopropyl-8-difluoromethoxy-6-fluoro-4-oxo-1,4-dihydro-quinoline-3-carboxylic acid] | 0.03 (≈ 0.0686 µM) | 0.25 (≈ 0.572 µM) | 2 (≈ 4.57 µM) | 4 (≈ 9.14 µM) | 0.5 (≈ 1.14 µM)
13 | NC/C=C1\CCCN(c2c(F)cc3c(=O)c(C(=O)O)cn(C4CC4)c3c2OC(F)F)C1 [Compound 397, (E)-7-[3-(2-Amino-ethylidene)-piperidin-1-yl]-1-cyclopropyl-8-difluoromethoxy-6-fluoro-4-oxo-1,4-dihydro-quinoline-3-carboxylic acid] | 0.06 (≈ 0.137 µM) | 0.5 (≈ 1.14 µM) |  | 8 (≈ 18.3 µM) | 2 (≈ 4.57 µM)
14 | C[C@H]1COc2c(N3CCC/C(=C(\F)CN)C3)c(F)cc3c(=O)c(C(=O)O)cn1c23 [Compound 398, (E)-9-[3-(2-Amino-1-fluoro-ethylidene)-piperidin-1-yl]-8-fluoro-(3S)-3-methyl-6-oxo-2,3-dihydro-6H-1-oxa-3a-aza-phenalene-5-carboxylic acid] | ≤ 0.015 | 0.03 (≈ 0.074 µM) | 0.25 (≈ 0.617 µM) | 0.5 (≈ 1.23 µM) | 1 (≈ 2.47 µM)
15 | C[C@H]1COc2c(N3CCC/C(=C(/F)CN)C3)c(F)cc3c(=O)c(C(=O)O)cn1c23 [Compound 399, (Z)-9-[3-(2-Amino-1-fluoro-ethylidene)-piperidin-1-yl]-8-fluoro-(3S)-3-methyl-6-oxo-2,3-dihydro-6H-1-oxa-3a-aza-phenalene-5-carboxylic acid] | 0.5 (≈ 1.23 µM) | 2 (≈ 4.93 µM) | 4 (≈ 9.87 µM) | > 16 | > 16
16 | C[C@H]1COc2c(N3CCC/C(=C(\Cl)CN)C3)c(F)cc3c(=O)c(C(=O)O)cn1c23 [Compound 400, (E)-9-[3-(2-Amino-1-chloro-ethylidene)-piperidin-1-yl]-8-fluoro-(3S)-3-methyl-6-oxo-2,3-dihydro-6H-1-oxa-3a-aza-phenalene-5-carboxylic acid] | ≤ 0.015 | 0.06 (≈ 0.142 µM) | 0.25 (≈ 0.593 µM) | 0.5 (≈ 1.19 µM) | 0.5 (≈ 1.19 µM)
17 | C[C@H]1COc2c(N3CCC/C(=C\CN)C3)c(F)cc3c(=O)c(C(=O)O)cn1c23 [Compound 401, (E)-9-[3-(2-Amino-ethylidene)-piperidin-1-yl]-8-fluoro-(3S)-3-methyl-6-oxo-2,3-dihydro-6H-1-oxa-3a-aza-phenalene-5-carboxylic acid] | 1 (≈ 2.58 µM) | 8 (≈ 20.6 µM) |  | > 16 | > 16
18 | C[C@H]1COc2c(N3CCC/C(=C/CN)C3)c(F)cc3c(=O)c(C(=O)O)cn1c23 [Compound 402, (Z)-9-[3-(2-Amino-ethylidene)-piperidin-1-yl]-8-fluoro-(3S)-3-methyl-6-oxo-2,3-dihydro-6H-1-oxa-3a-aza-phenalene-5-carboxylic acid] | 0.25 (≈ 0.645 µM) | 2 (≈ 5.16 µM) | 16 (≈ 41.3 µM) | > 16 | > 16
19 | C/C(CN)=C1\CCCN(c2c(F)cc3c(=O)c(C(=O)O)cn4c3c2OC[C@@H]4C)C1 [Compound 404, (Z)-9-[3-(2-Amino-1-methyl-ethylidene)-piperidin-1-yl]-8-fluoro-(3S)-3-methyl-6-oxo-2,3-dihydro-6H-1-oxa-3a-aza-phenalene-5-carboxylic acid] | 0.12 (≈ 0.299 µM) | 0.5 (≈ 1.25 µM) | 4 (≈ 9.96 µM) | 16 (≈ 39.9 µM) | > 16
20 | COc1c(N2CCC/C(=C(\F)CN)C2)c(F)cc2c(=O)c(C(=O)O)cn([C@@H]3C[C@@H]3F)c12 [Compound 405, (E)-7-[3-(2-Amino-1-fluoro-ethylidene)-piperidin-1-yl]-6-fluoro-(1R,2S)-1-(2-fluoro-cyclopropyl)-8-methoxy-4-oxo-1,4-dihydro-quinoline-3-carboxylic acid] | ≤ 0.015 | ≤ 0.25 | ≤ 0.12 | 0.25 (≈ 0.572 µM) | 0.25 (≈ 0.572 µM)
21 | COc1c(N2CCC/C(=C(/F)CN)C2)c(F)cc2c(=O)c(C(=O)O)cn([C@@H]3C[C@@H]3F)c12 [Compound 406, (Z)-7-[3-(2-Amino-1-fluoro-ethylidene)-piperidin-1-yl]-6-fluoro-(1R,2S)-1-(2-fluoro-cyclopropyl)-8-methoxy-4-oxo-1,4-dihydro-quinoline-3-carboxylic acid] | 0.06 (≈ 0.137 µM) | 0.5 (≈ 1.14 µM) | 8 (≈ 18.3 µM) | 8 (≈ 18.3 µM) | 2 (≈ 4.57 µM)
22 | COc1c(N2CCC/C(=C(\Cl)CN)C2)c(F)cc2c(=O)c(C(=O)O)cn([C@@H]3C[C@@H]3F)c12 [Compound 407, (E)-7-[3-(2-Amino-1-chloro-ethylidene)-piperidin-1-yl]-6-fluoro-(1R,2S)-1-(2-fluoro-cyclopropyl)-8-methoxy-4-oxo-1,4-dihydro-quinoline-3-carboxylic acid] | ≤ 0.015 | 0.03 (≈ 0.0661 µM) | 0.03 (≈ 0.0661 µM) | 0.25 (≈ 0.551 µM) | 0.12 (≈ 0.264 µM)

Reference: patent US20090156577A1, “7-AMINO ALKYLIDENYL-HETEROCYCLIC QUINOLONES AND NAPHTHYRIDONES” (priority 2004, published 2009)
